# In article PMC8587475, “Black Bean (Phaseolus vulgaris L.) Polyphenolic Extract Exerts Antioxidant and Antiaging Potential” (Molecules, 2021):
# Molecular target: T1, elastase from porcine pancreas (EC 3.4.21.36) (Sus scrofa, UniProt P00772)
# T1 construct: gene CELA1; commercial native enzyme from porcine pancreas (Sigma-Aldrich), mature; docking model PDB 1BRU (elastase 2) is not the assay sample
# Test: N-succinyl-Ala-Ala-Ala-p-nitroanilide hydrolysis, absorbance at […] nm
# Type: biochemical
# T1 sequence (P00772 27-266): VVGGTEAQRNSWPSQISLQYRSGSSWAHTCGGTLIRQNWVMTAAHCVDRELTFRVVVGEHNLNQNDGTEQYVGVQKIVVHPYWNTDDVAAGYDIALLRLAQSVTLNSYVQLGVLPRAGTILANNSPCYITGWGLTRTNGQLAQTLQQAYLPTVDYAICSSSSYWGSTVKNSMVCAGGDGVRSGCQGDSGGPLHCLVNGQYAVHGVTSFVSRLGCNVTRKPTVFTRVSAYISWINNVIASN
compound,measurement,value
Oc1cc(O)c2c(c1)OC(c1ccc(O)c(O)c1)C(O)C2 (racemic) [catechin],IC50,18.4 µM
